Laboratory results as given in US9408853B2, “Iridium/rhodium anti-cancer compounds” (University of Warwick, priority 2010, dated 2016).
Like-named read-outs stand apart in the source and are kept apart here.

Tests used:
[1] = system: human ovarian A2780 cancer cells; assay: Cancer cell cytotoxicity, SRB assay; format: cell-based
Description: Cancer Cell Cytotoxicity. After plating, human ovarian A2780 cancer cells were treated with Ir^III complexes on day 3 at concentrations ranging from 0.5 μM to 100 μM. Solutions of the Ir^III complexes were made up in 0.125% DMSO to assist dissolution. Stock solutions of the IrIII complexes were firstly prepared in DMSO to assist dissolution, and then diluted into 0.9% saline and medium. After plating 5000 A2780 cells per well on day 1, IrIII complexes were added to the cancer cells on day 3 at concentrations ranging from 0.05 μM to 100 μM. Cells were exposed to the complexes for 24 h, washed, supplied with fresh medium, allowed to grow for three doubling times (72 h), and then the protein content measured (proportional to cell survival) using the sulforhodamine B (SRB) assay.^15 […]. The standard errors are based on two independent experiments of three replicates each.

[2] = Determination of pKa* of coordinated D2O by 1H NMR pH* titration; format: physicochemical; details: for pKa (deprotonation of coordinated D2O): calculated from pKa* according to Krezel and Bal (pKa=0.929pKa*+0.42); for pKa* (deprotonation of coordinated D2O): in D2O
Description: pH* Measurement. pH* values (pH meter reading without correction for effects of D on glass electrode) of NMR samples in D2O were measured at ca. 298 K directly in the NMR tube, before and after recording NMR spectra, using a Corning 240 pH meter equipped with a micro combination electrode calibrated with Aldrich buffer solutions of pH 4, 7 and 10. For determination of the pKa* value of aquated complexes, complexes were dissolved in D2O and 0.98 mol equiv of AgNO3 was added. The solution was stirred for 24 h at 298 K, and AgCl was removed by filtration.
Determination of pKa* Values. […] The chemical shifts of the chelating ligands or/and methyl group of Cp* protons were plotted against pH*. The pH* titration curves were fitted to the Henderson-Hasselbalch equation, with the assumption that the observed chemical shifts are weighted averages according to the populations of the protonated and deprotonated species.
The changes in the ^1H NMR chemical shifts for the protons of the coordinated chelating ligands in compounds ZL25A, ZL54A, ZL38A, chelating ligands and methyl group in Cp* or Cp^xph in compounds ZL04A, ZL07A, ZL37A, ZL03A, and methyl group in Cp* in compound ZL01A were followed with change in pH* over a range of 2-11. The mean pKa* value was taken for each complex.
When the pH* values of the solutions were increased from about 2 to 11, the NMR peaks assigned to ZL01A, ZL03A, ZL04A, ZL07A, ZL25A, ZL37A, ZL38A and ZL54A gradually shifted to high field in the spectrum.
When the pH* values of the solutions were increased from about 2 to 10, the NMR peaks assigned to aqua complexes ZL47A, ZL49A, ZL69A and ZL74A gradually shifted to high field in the spectrum. The resulting pH titration curves were fitted to the modified Henderson-Hasselbalch equation, from which the pKa* values of the coordinated water were determined.

9-ethyladenine (9-EtA) = assay: Interactions with nucleobases: 9-EtA adduct formation (1H NMR); format: binding; details: 1 mM, 1 mol equiv 9-EtA, D2O, 310 K
Description: (§1) Interactions with Nucleobases. The reaction of ZL01, ZL03, ZL04, ZL07, ZL25, ZL33, ZL37, ZL38, ZL43 and ZL54 and ZL33A with nucleobases typically involved addition of a solution containing 1-2 mol equiv of nucleobase in D2O, to an equilibrium solution of ZL01, ZL03, ZL04, ZL07, ZL25, ZL33, ZL37, ZL38, ZL43, ZL54 and ZL33A in a solution of 5% MeOD-d4/95% D2O (v/v). ^1H NMR spectra of these solutions were recorded at 310 K after various time intervals.
(§2) Since DNA is a potential target site for transition metal anticancer complexes,^18 nucleobase binding reactions of compounds ZL01, ZL03, ZL04, ZL07, ZL25, ZL33, ZL33A, ZL37, ZL38, ZL43 and ZL54 with nucleobase models 9-ethylguanine (9-EtG) and 9-ethyladenine (9-EtA), were investigated. Solutions of ZL01, ZL03, ZL04, ZL07, ZL25, ZL33, ZL37, ZL38, ZL43 and ZL54 (1 mM) (containing an equilibrium mixture of these complexes and their respective aqua adducts) with 1 mol equivalent of 9-EtG or 9-EtA in D2O were prepared, and ^1H NMR spectra were recorded at different time intervals.

9-ethylguanine (9-EtG) = assay: Interactions with nucleobases: 9-EtG adduct formation (1H NMR); format: binding; details: 1 mM, 1 mol equiv 9-EtG (ZL33A: 2 mol equiv), D2O, 310 K
Description: as §1, §2
Interactions with Nucleobases. Since DNA is a potential target site for transition metal anticancer complexes,^23 the binding of 9-ethylguanine (9-EtG) to complexes ZL47, ZL49, ZL69, ZL74 and ZL107 was studied.

[3] = 24 h exposure, 72 h recovery, SRB, read-out: A2780 IC50
[4] = screening test, read-out: A2780 IC50, data from screening test

pKa (deprotonation of coordinated D2O) [2] | pKa* (deprotonation of coordinated D2O) [2] | Compound | IC50 [1, 3] | further results
– | – | Cc1c(C)c(C)[c-](-c2ccccc2)c1C.Cc1ccnc(-c2cc(C)ccn2)c1.F[P-](F)(F)(F)(F)F.[Cl-].[Ir+3] [ZL57, [(η^5-C5Me4C6H5)Ir(bipy(Me)2)Cl]PF6] | 9.2 µM | –
– | – | Cc1c(C)c(-c2ccc(-c3ccccc3)cc2)[c-](C)c1C.F[P-](F)(F)(F)(F)F.[Ir+3].[c-]1ccccc1-c1ccccn1.c1ccncc1 (stereo not shown) [ZL105, [(η^5-C5Me4C6H4C6H5)Ir(2-phpy)(py)]PF6] | 0.12 ± 0.02 µM | –
8.87 | 9.10 | [(η^5-C5Me5)Ir(tpy)(D2O)]^+ [ZL69A] | – | –
– | – | Cc1c(C)c(C)[c-](-c2ccc(-c3ccccc3)cc2)c1C.[Cl-].[Cl][Ir+2].c1cnc2c(c1)c1nccnc1c1cccnc12 [ZL94, [(η^5-C6Me4C6H4C6H5)Ir(dpq)Cl]Cl] | – | IC50 [1, 4]: < 5 µM
– | – | [(η^5-C5Me4C6H5)Ir(phen)(H2O)]^2+ [ZL33A] | 6.7 µM | Reaction with 9-EtA, extent of adduct formation (9-ethyladenine (9-EtA); 10 min): 0%; Reaction with 9-EtA, extent of adduct formation (9-ethyladenine (9-EtA); 24 h): 0%; Reaction with 9-EtG, extent of adduct formation (9-ethylguanine (9-EtG); 10 min): 65%; Reaction with 9-EtG, extent of adduct formation (9-ethylguanine (9-EtG); 24 h): 73%
– | – | Cc1c(C)c(C)[c-](C)c1C.[Cl-].[Ir+3].[O-]c1cccnc1-c1ncccc1O [ZL44, [(η^5-C5Me5)Ir(bipy(OH)O)Cl]] | 17.2 µM | cytotoxic activity towards A2780 (in words) [1]: moderate or high activity
7.99 | 8.15 | [(η^5-C5Me5)Ir(pico)OD2]^+ [ZL03A] | – | –
– | – | Cc1c(C)c(C)[c-](C)c1C.[Cl-].[Cl][Ir]1[n+]2ccccc2-c2cccc[n+]21 [ZL04, [(η^5-C5Me5)Ir(bipy)Cl]Cl] | > 100 µM | Reaction with 9-EtA, extent of adduct formation (9-ethyladenine (9-EtA); 10 min): 0%; Reaction with 9-EtA, extent of adduct formation (9-ethyladenine (9-EtA); 24 h): 0%; Reaction with 9-EtG, extent of adduct formation (9-ethylguanine (9-EtG); 10 min): 28.2%
– | – | Cc1c(C)c(C)[c-](-c2ccccc2)c1C.F[P-](F)(F)(F)(F)F.[Cl][Ir+2]1[N]2C=CC=c3c2c2c(c4nccnc34)=CC=C[N]21 [ZL89, [(η^5-C5Me4C6H5)Ir(dpq)Cl]PF6] | – | IC50 [1, 4]: < 5 µM
– | – | Cc1c(C)c(C)[c-](C)c1C.[Cl-].[Ir+3].[c-]1ccccc1C=Nc1ccccc1 [ZL51, [(η^5-C5Me5)Ir{C6H4-2-C(H)═NPh-κC,N}Cl]] | 5 µM | cytotoxic activity towards A2780 (in words) [1]: moderate or high activity
– | – | Cc1c(C)c(C)[c-](C)c1C.Cc1ccnc(-c2cc(C)ccn2)c1.F[P-](F)(F)(F)(F)F.[Cl-].[Ir+3] [ZL55, [(η^5-C5Me5)Ir(bipy(Me)2)Cl]PF6] | > 100 µM | –
8.32 | 8.51 | [(η^5-C5Me5)Ir(2-dfphpy)(D2O)]^+ [ZL74A] | – | –
– | – | Cc1c(C)c(C)[c-](-c2ccccc2)c1C.[Cl-].[Cl][Ir+2].c1ccc2nc3c4cccnc4c4ncccc4c3nc2c1 [ZL93, [(η^5-C5Me4C6H5)Ir(dppz)Cl]Cl] | – | IC50 [1, 4]: < 5 µM
– | – | CN(C)c1ccc(N=Nc2ccccn2)cc1.Cc1c(C)c(C)[c-](C)c1C.F[P-](F)(F)(F)(F)F.[Cl-].[Ir+3] [ZL64, [(η^5-C5Me5)Ir(azpy-NMe2)Cl]PF6] | – | IC50 [1, 4]: < 30 µM
– | – | CCC[c-]1c(C)c(C)c(C)c1C.[Cl-].[Ir+3].[c-]1ccccc1-c1ccccn1 [ZL100, [(η^5-C5Me4C3H7)Ir(2-phpy)Cl]] | – | IC50 [1, 4]: < 10 µM
– | – | Cc1c(C)c(-c2ccc(-c3ccccc3)cc2)[c-](C)c1C.Fc1c[c-]c(-c2ccccn2)c(F)c1.[Cl-].[Ir+3] (stereo not shown) [ZL103, [(η^5-C5Me4C6H4C6H5)Ir(2-dfphpy)Cl]] | 0.67 ± 0.11 µM | –

pKa (deprotonation of coordinated D2O) [2] | pKa* (deprotonation of coordinated D2O) [2] | Compound | IC50 [1, 3] | further results
– | – | Cc1c(C)c(C)[c-](-c2ccc(-c3ccccc3)cc2)c1C.Cc1ccnc(-c2cc(C)ccn2)c1.F[P-](F)(F)(F)(F)F.[Cl-].[Ir+3] [ZL59, [(η^5-C5Me4C6H4C6H5)Ir(bipy(Me)2)Cl]PF6] | 0.51 µM | –
– | – | CC(=O)C=C(C)[O-].Cc1c(C)c(C)[c-](C)c1C.[Cl-].[Ir+3] [ZL02, [(η^5-C5Me5)Ir(acac)Cl]] | > 100 µM | –
6.28 | 6.31 | [(η^5-C5Me4C6H5)Ir(bipy)OD2]^2+ [ZL37A] | – | –
– | – | Cc1c(C)c(C)[c-](C)c1C.O=C([O-])c1ccccn1.[Cl-].[Ir+3] [ZL03, [(η^5-C5Me5)Ir(η^2—C5H4N-2-CO2)Cl]] | > 100 µM | Reaction with 9-EtA, extent of adduct formation (9-ethyladenine (9-EtA); 10 min): 80.8%; Reaction with 9-EtA, extent of adduct formation (9-ethyladenine (9-EtA); 24 h): 80.7%; Reaction with 9-EtG, extent of adduct formation (9-ethylguanine (9-EtG); 10 min): 100%; Reaction with 9-EtG, extent of adduct formation (9-ethylguanine (9-EtG); 24 h): 100%
– | – | Cc1c(C)c(C)[c-](-c2ccc(-c3ccccc3)cc2)c1C.[Cl-].[Cl][Ir+2].c1ccc2nc3c4cccnc4c4ncccc4c3nc2c1 [ZL95, [(η^5-C5Me4C6H4C6H5Pr(dppz)Cl]Cl] | – | IC50 [1, 4]: < 5 µM
– | – | Cc1c(C)c(C)[c-](-c2ccccc2)c1C.F[P-](F)(F)(F)(F)F.Oc1cccnc1-c1ncccc1O.[Cl-].[Ir+3] [ZL45, [(η^5-C5Me4C6H5)Ir(bipy(OH)2)Cl]PF6] | 7.2 µM | –
– | – | Cc1c(C)c(-c2ccccc2)[c-](C)c1C.NCCN.[Cl-].[Ir+3].c1ccc([B-](c2ccccc2)(c2ccccc2)c2ccccc2)cc1 [ZL31, [(η^5-C5Me4C6H5)IrCl(H2NCH2CH2NH2—N,N)]BPh4] | 17 µM | –
8.75 | 8.97 | [(η^5-C5Me5)Ir(2-phpy)(D2O)]^+ [ZL47A] | – | –
7.54 | 7.66 | Cc1c(C)c(C)[c-](C)c1C.NCCN.[2H]O[2H].[Ir+3] [ZL01A, [(η^5-C5Me5)IrCl(en)OD2]^2+] | – | –
6.63 | 6.68 | [(η^5-C5Me4C6H4C6H5)Ir(bipy)OD2]^2+ [ZL25A] | – | –
8.31 | 8.50 | [(η^5-C5Me4C6H4C6H5)Ir(2-phpy)(D2O)]^+ [ZL49A] | – | –
7.38 | 7.50 | [(η^5-C5Me4C6H4C6H5)Ir(phen)OD2]^2+ [ZL54A] | – | –
– | – | CN(C)c1ccc(N=Nc2ccccn2)cc1.Cc1c(C)c(-c2ccccc2)[c-](C)c1C.F[P-](F)(F)(F)(F)F.[Cl-].[Ir+3] [ZL109, [(η^5-C5Me4C6H5)Ir(azpy-NMe2)Cl]PF6] | – | IC50 [1, 4]: < 10 µM
7.62 | 7.75 | [(η^5-C5Me4C6H5)Ir(pico)OD2]^+ [ZL38A] | – | –
– | – | Cc1c(C)c(C)[c-](-c2ccc(-c3ccccc3)cc2)c1C.[Cl-].[Ir+3].[O-]c1cccnc1-c1ncccc1O [ZL46, {(η^5-C5Me4C6H4C6H5)Ir[bipy(OH)(O)]Cl}] | 2.8 µM | –

Compound | pKa (deprotonation of coordinated D2O) [2] | pKa* (deprotonation of coordinated D2O) [2] | IC50 [1, 3] | further results
Cc1c(C)c(C)[c-](C)c1C.[2H]O[2H].[Ir+3].c1cnc2c(c1)ccc1cccnc12 [ZL07A, [(η^5-C5Me5)Ir(phen)OD2]^2+] | 7.74 | 7.88 | – | –
Cc1c(C)c(C)[c-](C)c1C.[2H]O[2H].[Ir+3].c1ccc(-c2ccccn2)nc1 [ZL04A, [(η^5-C5Me5)Ir(bipy)OD2]^2+] | 6.86 | 6.94 | – | –
